Where two headings read alike, the source gives them in different places. Non-standard residues stand in square brackets, D forms with d. Residues, ends and D or L forms follow the SMILES beside them. *: point of attachment. d(β3hF) = N[C@@H](CC(=O)O)Cc1ccccc1; Tic = O=C(O)[C@@H]1Cc2ccccc2CN1; β3hF = N[C@H](CC(=O)O)Cc1ccccc1; tBu = CC(C)(C)*
Tests used:
[1] = test system: mice, carrageenan air pouch; assay: Carrageenan air-pouch test (exudate cell number); format: in vivo, mouse; conditions: peptides 100 μg i.p. one hour before carrageenan, 24 h; FIGS. 18A-18B
Procedure: (§1) In this and the air-pouch test, 1.5 mg peptide was dissolved in 300 μl of DMSO, then in 0.9% NaCl to achieve the desired dose (250 μg/0.2 ml or 100 μg/0.2 ml). Carrageenan (Sigma) was dissolved in 0.9% aqueous NaCl (overnight). 50 μl of 2% carrageenan solution was injected intradermally into hind foot pads. The peptides were given in a single 250 μg dose (0.2 ml) per mouse intraperitoneally (i.p.), 30 min before carrageenan administration. Dexamethasone (DEX) (Dexaven, Polfa, Poland), a reference drug, was given i.p. in dose 25 μg per mouse. Control mice were administered i.p. appropriately diluted solvent (DMSO in aqueous NaCl) instead of peptides. The foot pads of “background” (BG) mice were injected with 50 μl of 0.9% aqueous NaCl. Foot pad edema was measured with a spring caliper, 2 h, 3 h and 4 h after administration of carrageenan. The results are presented in FIGS. 17A, 17B and 17C as mean values of the antigen-specific increase of the foot pad thickness measured in 5 mice in each experimental group and expressed in mm ±SE (only results from measurements 4 h following administration of carrageenan are presented in figures). Statistics: FIG. 17A: Control vs: DEX P=0.0001; 4B8M P=0.0001; P25 NS (P=1.0000); P28 NS (P=1.0000); P31 NS (P=0.0528); P35 P=0.0008 (ANOVA of Kruskal-Wallis); FIG. 17B: Statistics: Control vs: P22 NS (P=1.0000); P26 NS (P=1.0000); P27 P=0.0050; P30 P=0.0004; P33-b NS (P=1.0000); SP00-b P=0.0001; P00S-b NS (P=1.0000) (ANOVA of Kruskal-Wallis); FIG. 17C: Statistics: Control vs: P21 P=0.0147; P23-2 P=0.0083; P24 P=0.0001; P29 NS (P=0.9999); P32 P=0.0001; P33 NS (P=0.6806); P34 NS (P=0.1920) (ANOVA).
Air pouches were formed by subdermal injection into the dorsal region (in a halothane anesthesia) of 5 cm^3 of air (needle 23G x 11/4, 5 ml syringe). On day 3 the air pouches were given an additional 2 ml of air and an inflammatory process was elicited by an intra-pouch injection of 1% of carrageenan in 0.5 ml of 0.9% aqueous NaCl. The peptides were given i.p. at a dose of 100 μg one hour before carrageenan injection into the air pouch. The mice from the “background” (BG) group were given 0.9% aqueous NaCl i.p. and 0.9% aqueous NaCl into the air pouches. Control mice were given appropriately diluted DMSO i.p. and carrageenan into the air pouches. 24 h after carrageenan injection, the mice were sacrificed by cervical dislocation, the air pouches were supplemented with 1 ml of 0.9% aqueous NaCl and the exudates from the air pouches were aspirated using a syringe. The exudates were diluted with 0.9% aqueous NaCl and the cells were counted in a Bürker hemocytometer. Data are presented in FIGS. 18A and 18B as the mean values from 10 mice/group (cell number×10^6 per mouse) ±SE. Then the cells were centrifuged and 0.1 ml of the supernatant was saved for TNF-α determination (see Determination of TNF-α activity, above). The cell pellets were used to perform smears on microscopic glasses, which were stained with Giemsa and May-Grünwald reagents for evaluation of mast cell degranulation. Cell analysis was performed by a histologist using a light microscope and 1000× magnification. The content of intact and degranulated mast cells is given in percentage (mean values from 10 mice/group) ±SE. Statistics: FIG. 18A: BG vs Control P=0.0000; Control vs: DEX P=0.0034; 4B8M P=0.0005; P22 NS (P=0.7275); P26 P=0.0032; P27 NS (P=0.0659); P35 NS (P=1.0000) (ANOVA of Kruskal-Wallis); FIG. 18B: Control vs: P21 NS (P=0.322); P23-2 P=0.0020; P24 P=0.0001; P25 P=0.0418; P28 NS (P=0.3502); P29 NS (P=0.0582); P30 P=0.0006; P31 P=0.0078; P32 P=0.0340; P33 NS (P=0.9993); P34 NS (p=0.0566) (ANOVA).

[2] = test system: mice, carrageenan-induced foot pad edema; assay: Carrageenan-induced foot-pad edema test; format: in vivo, mouse; conditions: 4 h after carrageenan; peptides 250 μg i.p., DEX 25 μg i.p., 30 min before; FIGS. 17A-17C
Procedure: as §1

[3] = test system: PHA-induced proliferation of human peripheral blood mononuclear cells (PBMC); assay: Proliferative response of PBMC to PHA (MTT); format: cell-based; conditions: four-day incubation
human PBMC = assay: Toxicity test: PBMC survival in 24 h culture (MTT); conditions: ANOVA
Procedure: PBMC were isolated by centrifugation on Ficoll-uropoline gradient (density 1.077 g/ml) (Lymphoprep; PAA Laboratories), at 800×g for 20 min at 4° C. The interphase cells, consisting of lymphocytes (20%) and monocytes (80%) were then washed three times with Hanks' medium and re-suspended in the culture medium at density of 2×10^6 cells/ml.
Appropriate dilutions of DMSO in RPMI 1640 medium were used as controls. Cell survival was determined by the MTT colorimetric method (Hansen et al., J. Immunol. Methods, 1989, pp. 203-210). The data are presented as a mean OD value from quadriplicate wells ±standard error (SE). The cultures “Control (−)” contained only cells in the culture medium.
The assay was performed per Hansen et al., J. Immunol. […] Briefly, 25 μl of MTT (5 mg/ml) stock solution was added per well at the end of cell incubation and the plates were incubated for 3 h in a cell culture incubator. Then, 100 μl of the extraction buffer (20% SDS with 50% DMF, pH 4.7) was added. After additional overnight incubation, the optical density was measured at 550 nm (Dynatech 5000).

[4] = test system: LPS-induced TNF-α production; format: cell-based; conditions: Table 2A
Procedure: Human whole blood was diluted 10-fold with RPMI-1640 medium and distributed to 24-well culture plates in 1 ml aliquots. LPS was added to the culture at a concentration of 1 μg/ml. The studied peptides were used at concentrations of 1, 10 and 100 μg/ml. After overnight incubation, the supernatants were harvested and frozen at −20° C. until cytokine determination. TNF-α activity was determined using a bioassay. Briefly, WEHI 164.13 cells (ATCC CRL 1751) were seeded at a concentration of 2×10^4 cells/well in quadriplicate. Increasing dilutions of the assayed supernatant were mixed with the target cells in the presence of actinomycin D (1 μg/ml). After 20 h of incubation, MTT was added into the wells, and the cultures were incubated for an additional 4 h. […] The detection limit of the assay was about 2.5 pg/ml. One unit of TNF-α activity was defined as an inverse of supernatant dilution where 50% cell death took place. The cultures labeled “Control (−)” contained no LPS. The cultures labeled “Control (LPS)” contained LPS and none of the studied compounds. Statistical analysis was not applied since the data derive from single cultures (wells).

[5] = 10 μg/ml, FIGS. 8A-8F (4B8M repeated per figure)
[6] = 100 μg/ml, FIGS. 8A-8F (4B8M repeated per figure)
[7] = compound 1 μg/ml, LPS 1 μg/ml, overnight
[8] = compound 100 μg/ml (DMSO only: 196)

Compound	air pouch exudate cell number, P vs Control [1]	foot pad edema (increase of foot pad thickness), P vs Control [2]	PHA-induced PBMC proliferation, P vs DMSO at appropriate dilution ([3]; 100 μg/ml, FIGS. 9A-9F)	PBMC survival, P vs DMSO at appropriate dilution (human PBMC; [5])	PBMC survival, P vs DMSO at appropriate dilution (human PBMC; [6])	PHA-induced PBMC proliferation, P vs DMSO at appropriate dilution ([3]; 10 μg/ml, FIGS. 9A-9F)	% inhibition vs. DMSO ([4]; compound 1 μg/ml)	TNF-α [4, 7]	% inhibition vs. DMSO ([4]; compound 10 μg/ml)	TNF-α ([4]; compound 10 μg/ml)	% inhibition vs. DMSO ([4]; compound 100 μg/ml)	TNF-α [4, 8]	PHA-induced PBMC proliferation, P vs DMSO at appropriate dilution ([3]; 1 μg/ml, FIGS. 9A-9B)	PBMC survival, P vs DMSO at appropriate dilution (human PBMC; 1 μg/ml, FIGS. 8A-8B)
C[C@@H]1C[C@H]2[C@@H]3CCC4=CC(=O)C=C[C@]4(C)[C@@]3(F)[C@@H](O)C[C@]2(C)[C@@]1(O)C(=O)CO [DEX, dexamethasone, reference compound]	0.0034	0.0001												
O=C1N[C@@H](Cc2ccccc2)CC(=O)N2Cc3ccccc3C[C@H]2C(=O)N2CCC[C@H]2C(=O)N2CCC[C@@H]12 [I-AA] (cyclo(PP[β3hF][Tic]))	0.3502	1.0000	1.0000	0.9997	0.9978									
CC(C)(C)Oc1ccc(C[C@H]2CC(=O)N[C@@H](Cc3ccccc3)C(=O)N3CCC[C@H]3C(=O)N3CCC[C@H]3C(=O)N2)cc1 [I-AF]		1.0000	0.0010	1.0000	0.0090	0.9850								
CC(C)(C)OC[C@@H]1NC(=O)[C@H](Cc2ccccc2)NC(=O)C[C@H](Cc2ccccc2)NC(=O)[C@@H]2CCCN2C1=O [I-AL] (cyclo(FS(tBu)P[β3hF]))		0.0001	0.9976	1.0000	0.0466	0.2258								
O=C1C[C@H](Cc2ccccc2)NC(=O)[C@@H]2CCCN2C(=O)[C@@H]2CCCN2C(=O)[C@@H](Cc2ccccc2)N1 [I-D] (cyclo(PP[β3hF][dF]))			1.0000			0.9999	14.1%	7016 pg/mL	28.1%	5757 pg/mL	28.1%	141 pg/mL	1.0000	
O=C1C[C@H](Cc2ccccc2)NC(=O)[C@H]2CCCN2C(=O)[C@H]2CCCN2C(=O)[C@@H](Cc2ccccc2)N1 [I-E] (cyclo([dF][dP][dP][β3hF]))			0.9982			1.0000	19.0%	6614 pg/mL	20.7%	6346 pg/mL	10.2%	176 pg/mL	1.0000	
O=C1C[C@H](Cc2ccccc2)NC(=O)[C@@H]2CCCN2C(=O)[C@H]2CCCN2C(=O)[C@H](Cc2ccccc2)N1 [I-F] (cyclo([dP]P[β3hF]F))			0.0001			0.9930	25.9%	6052 pg/mL	34.8%	5222 pg/mL	61.2%	76 pg/mL	1.0000	
O=C1C[C@@H](Cc2ccccc2)NC(=O)[C@@H]2CCCN2C(=O)[C@@H]2CCCN2C(=O)[C@H](Cc2ccccc2)N1 [I-G] (cyclo(FPP[d(β3hF)]))			0.9970			0.4297	33.1%	5463 pg/mL	33.8%	5302 pg/mL	70.4%	58 pg/mL	0.9047	
O=C1C[C@H](Cc2ccccc2)NC(=O)[C@H]2CCCN2C(=O)[C@@H]2CCCN2C(=O)[C@H](Cc2ccccc2)N1 [I-H] (cyclo(FP[dP][β3hF]))			0.2037			1.0000	12.8%	7123 pg/mL	10.0%	7203 pg/mL	43.9%	110 pg/mL	0.5198	
O=C1C[C@@H](Cc2ccccc2)NC(=O)[C@H]2CCCN2C(=O)[C@H]2CCCN2C(=O)[C@@H](Cc2ccccc2)N1 [I-J] (cyclo([d(β3hF)][dF][dP][dP]))			0.1257			1.0000	1.6%	8033 pg/mL	4.4%	7658 pg/mL	0.0%	203 pg/mL	1.0000	
O=C1C[C@H](Cc2ccccc2)NC(=O)[C@@H]2CCCN2C(=O)[C@@H]2CCCN2C(=O)[C@H](Cc2c[nH]c3ccccc23)N1 [I-L] (cyclo(PP[β3hF]W))				1.0000	0.9957									0.9999
CC(C)(C)Oc1ccc(C[C@@H]2NC(=O)C[C@H](Cc3ccccc3)NC(=O)[C@@H]3CCCN3C(=O)[C@@H]3CCCN3C2=O)cc1 [I-N] (cyclo(PP[β3hF]Y(tBu)))				1.0000	1.0000									1.0000

Reference: US10238713B2, “Cyclic tetrapeptides and therapeutic applications thereof” (LODZ UNIVERSITY OF TECHNOLOGY, priority 2010, dated 2019)
